The test system of test [1] is staphylococci (strain not given). Nature of the test: Checkerboard analysis of PlySs2/CF-301 with AMPs, antimicrobial proteins and albumins in heat-inactivated human serum. Conditions: in combination with PlySs2/CF-301. The class given is cell-based, S. aureus.
For test [2], the system named is S. aureus (strain not given). In words: MIC analysis of various lysins, chimeric lysins and antibiotics in MHB and human serum. The format is cell-based. Conditions: for Minimal inhibitory concentration, MHB / Fold decrease in MIC / Minimal inhibitory concentration, Human serum: Table 14 (Example 2); for Fold decrease in MIC: human serum vs MHB; for MIC: Staphylococcus aureus. The method, then: To further evaluate the binding domain relevance to the serum component effect, various chimerics were constructed by replacing or swapping out one binding domain for another. Chimeric lysins having the Sal1 CHAP catalytic domain with ClyS binding domain, PlySs2 (CF-301) binding domain, or lysostaphin binding domain were assayed for MIC using MHB versus human serum. the results are depicted below in TABLE 14.

Test [3] relates to MRSA strain MW2. In words: Checkerboard assay in human serum and MHB. The class given is cell-based, S. aureus. The note with it: in combination with PlySs2 (CF-301).
In test [4] the test system is methicillin-resistant S. aureus (MRSA) strain MW2. In words: Time-kill assay in blood matrices and MHB. The class given is cell-based. The note with it: strain MW2; human blood matrices vs MHB.
The subject of test [5] is S. aureus (strain not given). Nature of the test: MIC analysis of various lysins, chimeric lysins and antibiotics in MHB and human serum. The format is cell-based. Conditions: Table 2; for Fold decrease in MIC: human serum vs MHB; for MIC: Staphylococcus aureus.
In another test the test system is S. aureus strain MW2. Nature of the test: Synergy time-kill assay. The class given is cell-based. The note with it: human serum.
Test [6] deals with MRSA strain MW2. In words: Rabbit infective endocarditis model. The class given is in vivo, New Zealand White Rabbits. Conditions: rabbit IE model; daptomycin 4 mg/kg IV once daily for 4 days.

Values after ≈ are worked out from the molar mass of the structure shown. Like-named read-outs stand apart in the source and are kept apart here. No end group written: not given here.

For “LEAP-2: Human AMP (MTPFWRGVSLRPIGASCRDDSECITRLCRKRRCSLSVAQE; ends and bridges not checked; cysteine pairing not given here; UniProt Q969E1 38-77, looked up) [reference compound]”, the ΣFICavg in test [1] worked out at 1.
The same measure, in the same setting: the same measure for “Lysozyme (Hen egg-white): lysozyme, hen egg”: no more than 0.563.
As for “Lysostaphin: lysin-like enzyme of Staphylococcus simulans with SH3-type binding domain; SEQ ID NO:7”, the “Minimal inhibitory concentration, MHB” value in test [2] and in test [5] (MHB) was 2 µg/mL each time. The “Fold decrease in MIC” value amounted to 512 in test [2], 512 in test [5] and 32 in test [5] (listed as lysostaphin). Besides, the “Minimal inhibitory concentration, Human serum” value in test [2] and in test [5] (human serum) was 0.0039 µg/mL in each case. Moreover, the ΣFICAVG with MRSA strain MW2 [3] (HuS) is reported as 0.13; with MRSA strain MW2 [3] (MHB), 0.5. Moreover, the figures for the ΣFICMIN in the test on MRSA strain MW2 [3] (HuS) and with MRSA strain MW2 [3] (MHB) were 0.09 and 0.275, respectively. For the same molecule, the “difference in sterilizing activity/potency, blood compared to MHB” value in test [4] was 100 fold. Also, the “concentration of each agent in PlySs2 (CF-301) + lysostaphin combination sterilizing at 24 hours” value with S. aureus strain MW2 came out at 0.005 µg/mL.
Regarding `CN[C@H](CC(C)C)C(=O)N[C@H]1C(=O)N[C@@H](CC(N)=O)C(=O)N[C@H]2C(=O)N[C@H]3C(=O)N[C@H](C(=O)N[C@H](C(=O)O)c4cc(O)cc(O)c4-c4cc3ccc4O)[C@H](O)c3ccc(c(Cl)c3)Oc3cc2cc(c3O[C@@H]2O[C@H](CO)[C@@H](O)[C@H](O)[C@H]2O[C@H]2C[C@](C)(N)[C@H](O)[C@H](C)O2)Oc2ccc(cc2Cl)[C@H]1O` [Vancomycin, vancomycin, reference compound], in test [2], the “Minimal inhibitory concentration, MHB” value came out at 1 µg/mL (≈ 0.69 µM); the “Fold decrease in MIC” value is listed as “no”; the “Minimal inhibitory concentration, Human serum” value was determined as 1 µg/mL (≈ 0.69 µM). Besides, the MIC in test [2] (read-out: Minimal inhibitory concentration, Human serum) worked out at 1 µg/mL (≈ 0.69 µM). The MIC in test [2] (read-out: Minimal inhibitory concentration, MHB) came to 1 µg/mL (≈ 0.69 µM). In the test with MRSA strain MW2 [3] (HuS), the ΣFICAVG came out at 0.5 and the ΣFICMIN came out at 0.375. Moreover, in the test with MRSA strain MW2 [3] (MHB), the ΣFICAVG was 0.63 and the ΣFICMIN is given as 0.5. Also, in test [4], the “difference in sterilizing activity/potency, blood compared to MHB” value is reported as “slightly decreased potency”. Besides, the “Fold decrease in MIC” value in test [5] was “no”.
As for “Serum albumin (Rabbit, from serum): rabbit serum albumin”, the ΣFICavg in test [1] was no more than 0.1.
The same measure, in the same setting: in the case of HNP-1: Human AMP [reference compound] it was 1.
For `CCCCCCCCCC(=O)N[C@@H](Cc1c[nH]c2ccccc12)C(=O)N[C@H](CC(N)=O)C(=O)N[C@@H](CC(=O)O)C(=O)N[C@@H]1C(=O)NCC(=O)N[C@@H](CCCN)C(=O)N[C@@H](CC(=O)O)C(=O)N[C@H](C)C(=O)N[C@@H](CC(=O)O)C(=O)NCC(=O)N[C@H](CO)C(=O)N[C@@H]([C@H](C)CC(=O)O)C(=O)N[C@@H](CC(=O)c2ccccc2N)C(=O)O[C@@H]1C` [Daptomycin, daptomycin, reference compound], in test [2], the “Minimal inhibitory concentration, MHB” value was 0.5 µg/mL (≈ 0.309 µM); the “Fold decrease in MIC” value was “no”; the “Minimal inhibitory concentration, Human serum” value turned out to be 8 µg/mL (≈ 4.94 µM). Moreover, in the test on MRSA strain MW2 [3] (HuS), the ΣFICAVG is listed as 0.292 and the ΣFICMIN turned out to be 0.25. In the test on MRSA strain MW2 [3] (MHB), the ΣFICAVG is recorded as 0.63 and the ΣFICMIN was found to be 0.5. Moreover, the “reduction in bacterial burden compared to vehicle treated controls” value with MRSA strain MW2 [6] was 2-3 log10. In addition, the MIC in test [5] (MHB, read-out: Minimal inhibitory concentration, MHB) came out at 0.5 µg/mL (≈ 0.309 µM). In test [5] (human serum, read-out: Minimal inhibitory concentration, Human serum), the MIC was found to be 8 µg/mL (≈ 4.94 µM). In addition, in test [5], the “Fold decrease in MIC” value is reported as “no”.
Regarding Histatin-5 [reference compound], the ΣFICavg in test [1] is reported as no less than 1.16.
Same read-out and setting: in the case of “β-Defensin 3: Human AMP (hBD-3) (GIINTLQKYYCRVRGGRCAVLSCLPKEEQIGKCSTRGRKCCRRKK; ends and bridges not checked; cysteine pairing not given here; UniProt P81534 23-67, looked up) [reference compound]” it was 1.
Still for that read-out and setting: the same measure for “LEAP-1: Human AMP (Hepcidin) (DTHFPICIFCCGCCHRSKCGMCCKT; ends and bridges not checked; cysteine pairing not given here; UniProt P81172 60-84, looked up) [reference compound]”: 0.75.
Same read-out and setting: in the case of LL-37 [reference compound] it was 1.

For the origin of these results see US20220023399A1, “BLOOD COMPONENT POTENTIATION OF LYTIC PROTEIN ANTI-BACTERIAL ACTIVITY AND METHODS AND USES THEREOF” (priority 2017, published 2022).
